Results reported in patent US8097656B2, “Nitrogenated trans-stilbene analogs, method for the obtention and medical applications thereof” (Dominion Pharmakine S.L, priority 2005, dated 2012).

Key:
MA375 cells = test: In vitro proliferation of MA375 cells in response to human HSC soluble factors; format: cell-based; conditions: for Increase in proliferation of A375 cells by MC-CEH (in words): 2.5 μM for 30 minutes before MC-CEH, 48 hours; for Proliferation of MA375 cells in response to human HSC soluble factors (No. cells per well): 2.5 μM, 30 min before HSC-conditioned media, 48 h, control 9000 ± 60, treatment alone 17500 ± 50
Protocol: (§1) Culture of B16 (MB16) and A375 (MA375) melanoma cells. The MB 16 (B16F10 subline) murine tumor cells were cultured at 37° C., with 5% CO2 atmosphere in Dulbecco's modified Eagle's medium (DMEM)-HCO3 penicillin (100 U/ml), streptomycin (100 μg/ml), supplemented with 5% fetal bovine serum and adjusted to pH 7.4. The cells were maintained and subcultured according to the method described by Vidal-Vanaclocha et al. (1994) [Vidal-Vanaclocha, F., Amézaga, C., Asumendi, A., Kaplanski, G. & Dinarello, C. A. Interleukin-1 receptor blockade reduces the number and size of murine B16 melanoma hepatic metastases. Cancer Research, 1994, 54, 2667-2672]. The conditioned media were obtained from subconfluyent cultures maintained in absence of FBS for 24 hours.
(§2) In vitro Melanoma cell proliferation test. The MB16 or MA375 cells are seeded (2500 cells/well/200 μl) in DMEM medium (Dulbecco's modified Eagle's medium) with 10% fetal bovine serum (FBS). Once adhered, they were washed to remove the FBS and fresh medium was added in the presence or absence of 2.5 μM of the compounds to be tested. In the experiments with MA375, the compound azaresveratrol (see Table 4) was used, and in the experiments with MB16 cells, the compounds azaresveratrol, JE1:2, JE2:1 or JE2:2 (see FIG. 3) were used. Thirty (30) minutes later, 10 ng/ml of IL-18 or HSC-conditioned media (murines in the case of B16 and human ones in the case of A375) were added to some wells, and the plates were incubated for 48 hours at 37° C. with 5% CO2 Upon completion of the incubation period, the cells were fixed with […] for 1 hours, were washed and were allowed to dry in the incubator at 50° C. for 30 minutes. In following, 100 μl/well of sulforhodamine 101 (0.4% p/v) was added and they were incubated at room temperature in the dark for 30 minutes. After washing, 200 μl/well of Tris base 10 mM pH 10.5 was added and the fluorescence was measured by means of a 530 nm, 620 nm emission excitation filter plate fluorescence reader. The number of cells was calculated by extrapolating said fluorescence data on a standard straight line previously obtained based on the fluorescence emitted in an increasing number of cells.

MB16 cells [1] = test: In vitro proliferation of MB16 cells in response to murine HSC soluble factors; format: cell-based; conditions: for Increase in proliferation of B16 cells by MC-CEH (in words): 2.5 μM for 30 minutes before MC-CEH, 48 hours; for Proliferation of MB16 cells in response to murine HSC soluble factors (No. cells per well): 2.5 μM, 30 min before HSC-conditioned media, 48 h, control 16300 ± 300, treatment alone 21660 ± 500
Protocol: as §1, §2

MB16 cells [2] = test: Adhesion of IL-18-treated MB16 cells to HSE cell monolayer; format: cell-based, murine; conditions: for Adhesion of MB16 cells treated with IL-18 to HSE cells (% adhered cells): 2.5 μM for 30 min prior to IL-18, control 24.4 ± 4, IL-18 alone 54 ± 6.0; for Increase of the percentage of adhesion of tumor cells to the HSE in response to IL-18 (in words): 2.5 μM for 30 minutes prior to IL-18
Description: Isolation of primary murine cultures of hepatic sinusoidal endothelial (HSE) cells. The hepatic sinusoidal cells were isolated from C57BL/6J mice (males, aged 6-8 weeks) supplied by IFFA Credo (L'Arbreole, France), followed by a purification and identification of the HSE cells following the protocol described by Vidal-Vanaclocha et al. (1993) [Vidal-Vanaclocha, F., Rocha, M., Asumendi, A. & Barbera-Guillem, E. Isolation and enrichment of two sublobular compartment-specific endothelial cell subpopulations from liver sinusoids. Hepatology, 1993, 18, 328-339]. Stable primary cultures of HSE cells were obtained after seeding the cells on a type I collagen substrate (Sigma Chemicals Co, St Louis, Mo.), and the cultures were maintained in DMEM-HCO^3−, penicillin (100 U/ml), streptomycin (100 μg/ml), supplemented with 10% fetal bovine serum at 37° C. with 5% CO2 in atmosphere at 98% humidity.
MB16 cell adhesion to the monolayer of HSE cells in culture. The endothelial cells were isolated 24 hours prior to the adhesion test and were seeded on 24-well plate, maintaining them a minimum of 4 hours in serum-free medium before incubating them with DMEM in the presence or not of MC-MB16 for 8 hours. The synthesized compounds (JE2:2 see FIG. 6; JEM2:2-01 and JEM2:1-02 see FIG. 8A; YEF02, YEF03, YEF07, YEF05B, YEF07B and YEF05H see FIG. 10) were added to a 2.5 μM concentration prior to the MC-MB16. On the other hand, the MB16 cells were marked with 40 μg/ml from the fluorescent probe BCECF-AM (carboxyfluorescein, 2′,7′-bis-(2-carboxy-ethyl)-5-(6)carboxyfluorescein aminoxymethyl ester) supplied by Molecular Probes Inc. (Oregon, USA). Afterward, a washing process was performed with DMEM-HCO3−—to remove the excess fluorochromium, the number of viable cells being calculated by means of the trypan blue exclusion test and resuspended to a concentration of 2×10^5 cells/ml. Lastly, 1 ml of the MB16 cell suspension was added to each well on the primary HSE cell culture plate. The co-culture plates were incubator-incubated at 37° C. for 8 minutes. The percentage of cellular adhesion was calculated by means of the a fluorescence measurement system described by Vidal-Vanaclocha et al. (1994) [Vidal-Vanaclocha, F., Amézaga, C., Asumendi, A., Kaplanski, G. & Dinarello, C. A. Interleukin-1 receptor blockade reduces the number and size of murine B16 melanoma hepatic metastases. Cancer Research, 1994, 54, 2667-2672]. In the experiments with IL-18, the MB16 cells were incubated with 10 ng/ml of IL-18 for 4 hours prior to being marked with BCECF-AM and were adhered to the HSE cell plate. The results in the figures are given as values related to the adhesion percentages of the untreated HSE cells.

| SMILES | Increase in proliferation of A375 cells by MC-CEH (in words) (MA375 cells) | Proliferation of MA375 cells in response to human HSC soluble factors (No. cells per well) (MA375 cells) | Increase in proliferation of B16 cells by MC-CEH (in words) (MB16 cells [1]) | Proliferation of MB16 cells in response to murine HSC soluble factors (No. cells per well) (MB16 cells [1]) | Adhesion of MB16 cells treated with IL-18 to HSE cells (% adhered cells) (MB16 cells [2]) | Increase of the percentage of adhesion of tumor cells to the HSE in response to IL-18 (in words) (MB16 cells [2]) |
| --- | --- | --- | --- | --- | --- | --- |
| Oc1ccc(/N=C/c2cc(O)cc(O)c2)cc1 [azaresveratrol, 5-((E)-(4-Hydroxyphenylimino)methyl)benzene-1,3-diol] | prevented | 9250 ± 65 No. cells per well | prevented | 16750 ± 135 No. cells per well | 31 ± 4.0 % adhered cells | significantly (P<0.01) inhibited |
| Oc1ccc(C=Cc2cc(O)cc(O)c2)cc1 [resveratrol, reference compound] | prevented | 9050 ± 100 No. cells per well | prevented | 16800 ± 250 No. cells per well | 30 ± 4.0 % adhered cells | significantly (P<0.01) inhibited |
